pIC50: −log10 of the molar value.

The test has as its target T1, Human GO (Homo sapiens, UniProt Q9UJM8).
T1 construct: purchased Novus Biologicals NBP1-72412
T1 sequence (Q9UJM8 1-370): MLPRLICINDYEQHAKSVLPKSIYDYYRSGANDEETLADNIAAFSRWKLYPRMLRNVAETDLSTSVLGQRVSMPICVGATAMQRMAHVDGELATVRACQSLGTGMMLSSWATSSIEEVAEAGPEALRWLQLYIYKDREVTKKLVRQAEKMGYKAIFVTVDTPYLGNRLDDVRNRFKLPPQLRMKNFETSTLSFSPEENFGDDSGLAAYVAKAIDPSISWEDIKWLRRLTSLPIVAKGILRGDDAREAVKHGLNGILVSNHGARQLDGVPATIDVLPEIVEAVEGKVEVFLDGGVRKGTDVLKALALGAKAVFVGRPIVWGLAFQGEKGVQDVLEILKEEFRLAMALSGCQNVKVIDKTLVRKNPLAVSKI
Kind of test: GO enzymatic assay (coupled fluorescence/HRP assay, glycolate substrate). The class given is biochemical. Particulars: Table 4; read-out: Range (range of IC50 values calculated from the enzymatic assays). The method, boiled down: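 Coupled HRP/fluorescence read-out of glycolate oxidation by human GO in 50 mM potassium phosphate buffer (pH 7). Inhibitors added across a concentration range.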
Broadly, the pIC50 is −log10 of the IC50, conventionally taken in molar units. Turning to `O=C(O)c1[nH]nnc1O[C@H]1CC[C@H](c2ccc(OCCC3CCCCC3)cc2)CC1` [Example 462, 4-(((trans)-4-(4-(2-cyclohexylethoxy)phenyl)cyclohexyl)oxy)-1H-1,2,3-triazole-5-carboxylic acid], the negative logarithm of the IC50 (pIC50) is above 7.00.
In the case of `O=C(O)c1[nH]nnc1O[C@H]1CC[C@H](c2ccc(OCCCO)cc2)CC1` [Example 463, 4-(((trans)-4-(4-(3-hydroxypropoxy)phenyl)cyclohexyl)oxy)-1H-1,2,3-triazole-5-carboxylic acid], the negative-log IC50 (pIC50) is above 7.00.
`CC(C)c1cc(-c2ccc([C@H]3CC[C@H](Oc4nn[nH]c4C(=O)O)CC3)cc2)[nH]n1` [Example 464, 4-(((trans)-4-(4-(3-isopropyl-1H-pyrazol-5-yl)phenyl)cyclohexyl)oxy)-1H-1,2,3-triazole-5-carboxylic acid 2,2,2-trifluoroacetate]: the pIC50 was above 7.00.
Regarding `CN(c1nn[nH]c1C(=O)O)[C@H]1CC[C@@H](c2ccc(OC(F)(F)F)cc2)CC1` [Example 465, 4-(methyl((cis)-4-(4-(trifluoromethoxy)phenyl)cyclohexyl)amino)-1H-1,2,3-triazole-5-carboxylic acid], the negative logarithm of the IC50 (pIC50) was 6.00 to 7.00.
The same measure for `O=C(O)c1[nH]nnc1O[C@H]1CC[C@H](c2ccc(-c3ccn[nH]3)c(CO)c2)CC1` [Example 466, 4-(((trans)-4-(3-(hydroxymethyl)-4-(1H-pyrazol-5-yl)phenyl)cyclohexyl)oxy)-1H-1,2,3-triazole-5-carboxylic acid]: above 7.00.
Take `O=C(O)c1[nH]nnc1O[C@H]1CC[C@@H](c2ccc(-c3ccn[nH]3)c(CO)c2)CC1` [Example 467, 4-(((cis)-4-(3-(hydroxymethyl)-4-(1H-pyrazol-5-yl)phenyl)cyclohexyl)oxy)-1H-1,2,3-triazole-5-carboxylic acid 2,2,2-trifluoroacetate]: the pIC50 is above 7.00.
For the compound `CN1CCN(c2ccc([C@H]3CC[C@H](Oc4nn[nH]c4C(=O)O)CC3)cc2)CC1` [Example 468, 4-(((trans)-4-(4-(4-methylpiperazin-1-yl)phenyl)cyclohexyl)oxy)-1H-1,2,3-triazole-5-carboxylic acid 2,2,2-trifluoroacetate], the negative logarithm of the IC50 (pIC50) is above 7.00.
The same measure for `CC(C)(O)Cn1ccc(-c2ccc([C@H]3CC[C@H](Oc4nn[nH]c4C(=O)O)CC3)cc2)n1` [Example 469, 4-(((trans)-4-(4-(1-(2-hydroxy-2-methylpropyl)-1H-pyrazol-3-yl)phenyl)cyclohexyl)oxy)-1H-1,2,3-triazole-5-carboxylic acid 2,2,2-trifluoroacetate]: above 7.00; for `O=C(O)c1[nH]nnc1O[C@H]1CC[C@H](c2ccc(-c3ccnn3CC3(O)CCCCC3)cc2)CC1` [Example 471, 4-(((trans)-4-(4-(1-((1-hydroxycyclohexyl)methyl)-1H-pyrazol-5-yl)phenyl)cyclohexyl)oxy)-1H-1,2,3-triazole-5-carboxylic acid 2,2,2-trifluoroacetate]: above 7.00.
Take `NCCCOc1ccc([C@H]2CC[C@H](Oc3nn[nH]c3C(=O)O)CC2)cc1` [Example 472, 4-(((trans)-4-(4-(3-aminopropoxy)phenyl)cyclohexyl)oxy)-1H-1,2,3-triazole-5-carboxylic acid 2,2,2-trifluoroacetate]: the negative-log IC50 (pIC50) was above 7.00.
Then `CCC(CC)c1cc(-c2ccc([C@H]3CC[C@H](Oc4nn[nH]c4C(=O)O)CC3)cc2)[nH]n1` [Example 473, 4-(((trans)-4-(4-(3-(pentan-3-yl)-1H-pyrazol-5-yl)phenyl)cyclohexyl)oxy)-1H-1,2,3-triazole-5-carboxylic acid], with above 7.00.
`CNCCCOc1ccc([C@H]2CC[C@H](Oc3nn[nH]c3C(=O)O)CC2)cc1` [Example 474, 4-(((trans)-4-(4-(3-(methylamino)propoxy)phenyl)cyclohexyl)oxy)-1H-1,2,3-triazole-5-carboxylic acid 2,2,2-trifluoroacetate]: the negative-log IC50 (pIC50) was above 7.00.

The values above are taken from patent US11384055B2 (BIOMARIN PHARMACEUTICAL INC., priority 2017, dated 2022).
